Key:
Test in all cases: NCI one-dose assay
[1] = system: A549/ATCC; format: cell-based; conditions: Homo sapiens, Non-small cell lung cancer, read-out: Cell growth inhibition %
Method: (§1) The National Cancer Institute (NCI), Bethesda, USA, selected the final compounds 6a–j and 7a–j for in vitro anticancer screening. An initial in vitro single-dose anticancer experiment was performed with the entire NCI 60 cell lines derived from nine tumor subpanel cancer cell lines. The results for each compound were illustrated as a mean graph showing the percentage growth of treated cells compared to untreated control cells (see Supplementary Materials).
(§2) The NCI anticancer screening process has been thoroughly detailed. The Drug Evaluation Branch of the National Cancer Institute in Bethesda, […], USA, established the procedure and conducted the anticancer assay on 60 human tumor cell lines from nine neoplastic cancers.

[2] = system: DU-145; format: cell-based; conditions: Homo sapiens, DU-145, Prostate cancer, read-out: Cell growth inhibition %
Method: as §1, §2

[3] = system: EKVX; format: cell-based; conditions: Homo sapiens, Non-small cell lung cancer, read-out: Cell growth inhibition %
Method: as §1, §2

[4] = system: HCC-2998; format: cell-based; conditions: Homo sapiens, HCC-2998, Colon cancer, read-out: Cell growth inhibition %
Method: as §1, §2

[5] = system: HL-60(TB); format: cell-based; conditions: Homo sapiens, Leukemia, read-out: Cell growth inhibition %
Method: as §1, §2

[6] = system: HS 578 T; format: cell-based; conditions: Homo sapiens, Breast cancer, read-out: Cell growth inhibition %
Method: as §1, §2

[7] = system: HT29; format: cell-based; conditions: Homo sapiens, HT-29, HT29, Colon cancer, read-out: Cell growth inhibition %
Method: as §1, §2

[8] = system: IGROV1; format: cell-based; conditions: Homo sapiens, IGROV-1, IGROV1, Ovarian cancer, read-out: Cell growth inhibition %
Method: as §1, §2

[9] = system: K-562; format: cell-based; conditions: Homo sapiens, K562, K-562, Leukemia, read-out: Cell growth inhibition %
Method: as §1, §2

[10] = system: M14; format: cell-based; conditions: Homo sapiens, M14, Melanoma, read-out: Cell growth inhibition %
Method: as §1, §2

[11] = system: MALME-3M; format: cell-based; conditions: Homo sapiens, Melanoma, read-out: Cell growth inhibition %
Method: as §1, §2

[12] = system: MDA-MB-231/ATCC; format: cell-based; conditions: Homo sapiens, Breast cancer, read-out: Cell growth inhibition %
Method: as §1, §2

[13] = system: NCI-H23; format: cell-based; conditions: Homo sapiens, NCI-H23, Non-small cell lung cancer, read-out: Cell growth inhibition %
Method: as §1, §2

[14] = system: NCI-H460; format: cell-based; conditions: Homo sapiens, NCI-H460, Non-small cell lung cancer, read-out: Cell growth inhibition %
Method: as §1, §2

[15] = system: NCI-H522; format: cell-based; conditions: Homo sapiens, NCI-H522, Non-small cell lung cancer, read-out: Cell growth inhibition %
Method: as §1, §2

[16] = system: NCI/ADR-RES; format: cell-based; conditions: Homo sapiens, Ovarian cancer, read-out: Cell growth inhibition %
Method: as §1, §2

[17] = system: OVCAR-3; format: cell-based; conditions: Homo sapiens, OVCAR-3, Ovarian cancer, read-out: Cell growth inhibition %
Method: as §1, §2

[18] = system: OVCAR-4; format: cell-based; conditions: Homo sapiens, OVCAR-4, Ovarian cancer, read-out: Cell growth inhibition %
Method: as §1, §2

[19] = system: OVCAR-5; format: cell-based; conditions: Homo sapiens, OVCAR-5, Ovarian cancer, read-out: Cell growth inhibition %
Method: as §1, §2

[20] = system: OVCAR-8; format: cell-based; conditions: Homo sapiens, OVCAR-8, Ovarian cancer, read-out: Cell growth inhibition %
Method: as §1, §2

[21] = system: SF-268; format: cell-based; conditions: Homo sapiens, SF-268, CNS cancer, read-out: Cell growth inhibition %
Method: as §1, §2

[22] = system: SF-539; format: cell-based; conditions: Homo sapiens, SF-539, CNS cancer, read-out: Cell growth inhibition %
Method: as §1, §2

[23] = system: SK-MEL-28; format: cell-based; conditions: Homo sapiens, SK-MEL-28, Melanoma, read-out: Cell growth inhibition %
Method: as §1, §2

[24] = system: SK-MEL-5; format: cell-based; conditions: Homo sapiens, SK-MEL-5, Melanoma, read-out: Cell growth inhibition %
Method: as §1, §2

[25] = system: SK-OV-3; format: cell-based; conditions: Homo sapiens, SK-OV-3, Ovarian cancer, read-out: Cell growth inhibition %
Method: as §1, §2

[26] = system: SN12C; format: cell-based; conditions: Homo sapiens, Renal cancer, read-out: Cell growth inhibition %
Method: as §1, §2

[27] = system: SNB-19; format: cell-based; conditions: Homo sapiens, SNB-19, CNS cancer, read-out: Cell growth inhibition %
Method: as §1, §2

[28] = system: SR; format: cell-based; conditions: Homo sapiens, Leukemia, read-out: Cell growth inhibition %
Method: as §1, §2

[29] = system: SW-620; format: cell-based; conditions: Homo sapiens, SW-620, Colon cancer, read-out: Cell growth inhibition %
Method: as §1, §2

[30] = system: T-47D; format: cell-based; conditions: Homo sapiens, T47D, Breast cancer, read-out: Cell growth inhibition %
Method: as §1, §2

[31] = system: TK-10; format: cell-based; conditions: Homo sapiens, TK-10, Renal cancer, read-out: Cell growth inhibition %
Method: as §1, §2

[32] = system: U251; format: cell-based; conditions: Homo sapiens, U-251, U251, CNS cancer, read-out: Cell growth inhibition %
Method: as §1, §2

[33] = system: UACC-257; format: cell-based; conditions: Homo sapiens, UACC-257, Melanoma, read-out: Cell growth inhibition %
Method: as §1, §2

[34] = system: 786-0; format: cell-based, human; conditions: Homo sapiens, 786-0, 786-0, Renal cancer, read-out: Cell growth inhibition %
Method: as §1, §2

[35] = system: HOP-92; format: cell-based, human; conditions: Homo sapiens, HOP-92, HOP-92, Non-small cell lung cancer, read-out: Cell growth inhibition %
Method: as §1, §2

[36] = system: UO-31; format: cell-based, human; conditions: for inhibition at 10 µM: Homo sapiens, UO-31, UO-31, Renal cancer, read-out: Cell growth inhibition %
Method: as §1, §2

| Structure (SMILES) | inhibition at 10 µM [1] [%] | inhibition at 10 µM [2] [%] | inhibition at 10 µM [3] [%] | inhibition at 10 µM [4] [%] | inhibition at 10 µM [5] [%] | inhibition at 10 µM [6] [%] | inhibition at 10 µM [7] [%] | inhibition at 10 µM [8] [%] | inhibition at 10 µM [9] [%] | inhibition at 10 µM [10] [%] | inhibition at 10 µM [11] [%] | inhibition at 10 µM [12] [%] | inhibition at 10 µM [13] [%] | inhibition at 10 µM [14] [%] | inhibition at 10 µM [15] [%] | inhibition at 10 µM [16] [%] | inhibition at 10 µM [17] [%] | inhibition at 10 µM [18] [%] | inhibition at 10 µM [19] [%] | inhibition at 10 µM [20] [%] | further results |
| --- | --- | --- | --- | --- | --- | --- | --- | --- | --- | --- | --- | --- | --- | --- | --- | --- | --- | --- | --- | --- | --- |
| COc1ccc(/C(CSc2nnc(-c3c[nH]c4ccccc34)n2-c2ccccc2)=N/O)cc1 [Compound 7g, (Z)-2-((5-(1H-Indol-3-yl)-4-phenyl-4H-1,2,4-triazol-3-yl)thio)-1-(4-methoxyphenyl) Ethanone Oxime] | 65.8 | 57 | 84.9 | 57.6 | 96.1 | 61.2 | 68 | 56.9 | 81.2 | 71.1 | 26.9 | 39.3 | 58.4 | 82.8 | 63.5 | 61.8 | 69.5 | 83.2 | 45 | 70.3 | inhibition at 10 µM [21]: 51.5%; inhibition at 10 µM [22]: 42.7%; inhibition at 10 µM [23]: 62.6%; inhibition at 10 µM [24]: 110%; inhibition at 10 µM [25]: 47.9%; inhibition at 10 µM [26]: 54.2%; inhibition at 10 µM [27]: 59.7%; inhibition at 10 µM [28]: 89.1%; inhibition at 10 µM [29]: 60.6%; inhibition at 10 µM [30]: 89.7%; inhibition at 10 µM [31]: 57.4%; inhibition at 10 µM [32]: 60.6%; inhibition at 10 µM [33]: 49.9%; inhibition at 10 µM [34]: 40.3%; inhibition at 10 µM [35]: 71.8%; inhibition at 10 µM [36]: 81.8% |
| C=CCn1c(SCC(=O)c2ccccc2)nnc1-c1c[nH]c2ccccc12 [Compound 6a, 2-((4-Allyl-5-(1H-indol-3-yl)-4H-1,2,4-triazol-3-yl)thio)-1-phenylethanone] | -0.25 | -9.05 | 4.22 | -10.6 | 4.39 | 2.96 | -11.8 | 11.6 | 7.37 | 2.35 | 13.4 | 11.2 | 0.39 | -6.84 | 2.25 | 2.62 | -14.8 | 2.53 | -3.17 | 4.58 | inhibition at 10 µM [21]: -1.91%; inhibition at 10 µM [22]: 2.68%; inhibition at 10 µM [23]: -5.22%; inhibition at 10 µM [24]: 3.38%; inhibition at 10 µM [25]: -20.4%; inhibition at 10 µM [26]: 7.27%; inhibition at 10 µM [27]: 1.66%; inhibition at 10 µM [28]: 23.5%; inhibition at 10 µM [29]: 3.89%; inhibition at 10 µM [30]: 5.03%; inhibition at 10 µM [31]: -43.9%; inhibition at 10 µM [32]: -7.24%; inhibition at 10 µM [33]: 2.08%; inhibition at 10 µM [34]: -1.07%; inhibition at 10 µM [35]: 18.7%; inhibition at 10 µM [36]: 35%; Cell growth inhibition % ([36]; UO-31, Renal cancer, 10 µM): 34.27% |

Source: paper PMC11859928, “Design, Synthesis, and Antiproliferative Activity of Novel Indole/1,2,4-Triazole Hybrids as Tubulin Polymerization Inhibitors” (Pharmaceuticals, 2025)
